How the values were obtained:
[1] = MTT cytotoxicity assay, K562; type: cell-based; conditions: human, K562 cells, triplicates, read-out: Cytotoxicity against cancer cells (IC50), K562
Description: (§1) JAR, K562, and HCT116 cells were seeded in 96-well plates (3500 cells/well) and incubated for 8 h. The medium with different concentrations of compounds (100, 33.3, 11.1, 3.7, 1.2, and 0.4 μM) was added to the 96-well plates. Data were normalized to the medium with 0.1% DMSO. After incubation for 72 h, MTT solution (5 mg/mL, 20 μL) was added per well in a dark environment and incubated for 4 h. After the medium was discarded, DMSO (150 μL) was added per well, and the absorbance was measured at 492 nm by a plate reader (TECAN Spark).

K562 = assay: CCK-8 proliferation assay, K562; type: cell-based; conditions: Homo sapiens, CCK-8 kit assay, triplicates, 72 h, read-out: Anti-proliferation activity against cancer cells (IC50), K562
Description: (§2) The JAR, K562, HCT116, and MOLM13 cells were seeded in 96-well plates (3000 cells/well). After being cultured overnight, compounds were added together with the DMSO treatment (0.1%) as a control. After 72 h, CCK-8 solution (Vazyme, A311) was added, and the cells were incubated at 37 °C for 4 h. The absorbance was measured at 450 nm using a plate reader (TECAN Spark).

[2] = target: T1, YTHDF2 (residues 383–553) (Homo sapiens, UniProt Q9Y5A9); assay: Fluorescence polarization (FP) assay, YTHDF2–m6A RNA interaction; type: binding; conditions: 100 μM compound; YTHDF2 (residues 383–553, 20 nM), FAM-labeled m6A RNA probe 5 nM; average ± SD
T1 construct: A YTHDF2 YTH domain construct (residues 383–553) was subcloned to a pOPIN plasmid; made in house; host or cells: Escherichia coli BL21(DE3)
T1 sequence (Q9Y5A9 383-553): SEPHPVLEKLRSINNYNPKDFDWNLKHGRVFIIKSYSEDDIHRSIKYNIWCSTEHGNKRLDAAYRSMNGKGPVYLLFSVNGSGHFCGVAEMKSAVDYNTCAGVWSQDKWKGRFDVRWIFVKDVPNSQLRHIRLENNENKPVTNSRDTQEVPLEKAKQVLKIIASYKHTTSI
Description: The FP assay was performed in 384-well black plates (Corning no. 4514) with a total reaction volume of 15 μL. The final concentrations of protein (YTHDF2) and RNA were […], respectively, in a buffer containing 20 mM HEPES/KOH pH 7.5, 50 mM NaCl, 0.005% Tween 20, and 1 mM GSH (DTT). Compounds were incubated with protein, added FAM-m^6A RNA probe ([…](m6)ACUGUG) (purchased from IDT), and incubated at 4 °C for 30 min. The fluorescence polarization was measured using a plate reader (TECAN Spark) under an excitation wavelength of 485 nm and an emission wavelength of 535 nm with a bandwidth of 20 nm. […] The data were determined using GraphPad Prism 9.

JAR = assay: CCK-8 proliferation assay, JAR; type: cell-based; conditions: Homo sapiens; CCK-8 kit assay, triplicates, 72 h; read-out: Anti-proliferation activity against cancer cells (IC50), JAR
Description: as §2

[3] = MTT cytotoxicity assay, JAR; type: cell-based; conditions: human, JAR cells, triplicates, read-out: Cytotoxicity against cancer cells (IC50), JAR
Description: as §1

[4] = MTT cytotoxicity assay, HCT116; type: cell-based; conditions: human, HCT116 cells, triplicates, read-out: Cytotoxicity against cancer cells (IC50), HCT116
Description: as §1

HCT116 = assay: CCK-8 proliferation assay, HCT116; type: cell-based; conditions: Homo sapiens, HCT-116; CCK-8 kit assay, triplicates, 72 h; read-out: Anti-proliferation activity against cancer cells (IC50), HCT116
Description: as §2

IC50 (K562) [µM] | inhibition at 100 µM [2] [%] | IC50 (HCT116) [µM] | inhibition at 100 μM in the FP assay [2] [%] | Structure (SMILES) | IC50 at 72 h [1] [µM] | IC50 (JAR) [µM] | IC50 at 72 h [3] [µM] | IC50 at 72 h [4] [µM]
28.3 ± 5.4 | -3.7 ± 7.8 | > 50 | – | O=C(c1cnn(-c2ccccc2)c1)c1ccccc1O [CK-22] | 32.1 ± 12.2 | 27.6 ± 2.8 | 48.1 ± 10.2 | 43.5 ± 12.3
> 50 | – | > 50 | – | O=C(O)c1cccc(-n2cc(C(=O)c3ccccc3O)cn2)c1 [CK-23, 3-(4-(2-hydroxybenzoyl)-1H-pyrazol-1-yl)benzoic acid] | 21.5 ± 8.2 | > 50 | 45 ± 4.6 | 12.9 ± 2.5
> 50 | 5.2 ± 6.7 | > 50 | – | O=C(O)c1ccc(-n2cc(C(=O)c3ccccc3O)cn2)cc1 [CK-24] | 43.2 ± 15.7 | > 50 | > 50 | > 50
> 50 | 22.1 ± 3.3 | > 50 | – | O=C(c1cnn(-c2ccccc2C(=O)O)c1)c1ccccc1O [CK-25] | 44.3 ± 13.1 | > 50 | > 50 | > 50
21.5 ± 1.9 | 10.7 ± 7.2 | 43.2 ± 5.3 | – | O=C(c1cnn(-c2ccc(F)cc2)c1)c1ccccc1O [CK-26] | 23.4 ± 9.4 | 31.2 ± 6.4 | 47.2 ± 15.5 | 29.4 ± 10.4
44.8 ± 8.7 | -5.2 ± 2.8 | 45.6 ± 2.5 | – | O=C(c1cnn(-c2ccc(Cl)cc2)c1)c1ccccc1O [CK-27] | > 50 | > 50 | > 50 | > 50
> 50 | 42.2 ± 12.1 | > 50 | – | O=C(c1cnn(-c2ccc(Br)cc2)c1)c1ccccc1O [CK-28] | > 50 | > 50 | > 50 | > 50
> 50 | 44.5 ± 7.1 | > 50 | – | N#Cc1ccc(-n2cc(C(=O)c3ccccc3O)cn2)cc1 [CK-38] | 43.2 ± 11.2 | > 50 | > 50 | > 50
25.6 ± 2.3 | 6.9 ± 3.3 | 38.9 ± 12.1 | – | O=C(c1cnn(-c2ccc(OC(F)(F)F)cc2)c1)c1ccccc1O [CK-39] | 19.8 ± 14.3 | 31.2 ± 3.5 | 46.2 ± 20.8 | 26.4 ± 10.3
39.2 ± 6.1 | -4.8 ± 3.2 | > 50 | – | COc1ccc(-n2cc(C(=O)c3ccccc3O)cn2)cc1 [CK-40] | 33.2 ± 5.8 | > 50 | 44.6 ± 12.3 | 25.5 ± 1.8
> 50 | 24.4 ± 2.1 | > 50 | – | O=C(c1cnn(-c2ccccc2F)c1)c1ccccc1O [CK-43] | 46.2 ± 10.1 | > 50 | > 50 | > 50
34.9 ± 3.5 | 0.8 ± 7 | > 50 | – | O=C(c1cnn(-c2ccccc2Cl)c1)c1ccccc1O [CK-44] | 32.3 ± 8.8 | 41.2 ± 8.5 | 44.7 ± 14.4 | 18.5 ± 14.1
33.1 ± 5.7 | 22.1 ± 6.6 | > 50 | – | Cc1ccccc1-n1cc(C(=O)c2ccccc2O)cn1 [CK-45] | 21.9 ± 7.6 | 42.8 ± 1.2 | 43.2 ± 15.5 | 26 ± 16.8
42.9 ± 6.2 | 5.4 ± 4.2 | > 50 | – | COc1ccccc1-n1cc(C(=O)c2ccccc2O)cn1 [CK-46] | 23.8 ± 4.7 | > 50 | > 50 | 49.4 ± 22.1
> 50 | 25.5 ± 6.7 | > 50 | – | COc1ccc(-n2cc(C(=O)c3ccccc3O)cn2)cn1 [CK-47] | > 50 | > 50 | > 50 | > 50
– | < 30 | – | 26.6 ± 1.9 | COC(=O)c1ccc(-n2cc(/C=C(\C#N)C(N)=O)cn2)cc1 [CK-94] | – | – | – | –

Reference: paper PMC11862924, “Phenylpyrazoles as Inhibitors of the m^6A RNA-Binding Protein YTHDF2” (JACS Au, 2025)
